# Where two headings read alike, the source gives them in different places.
# Columns and labels:
# Format in all cases: cell-based, human
# [1] = test system: MV4;11 cells; test: Cell proliferation experiment (Alamar blue, 72 h), MV4;11
# Method in brief: (§1)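 IC50 values derive from a four-parameter logistic fit of Alamar blue fluorescence. Cells in logarithmic growth, plated in 96-well format, are treated for 72 h with compound diluted 5-fold serially, two wells per concentration.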
# [2] = test system: Daudi cells; test: Cell proliferation experiment, Daudi; conditions: read-out: Inhibitory activity IC50 on Daudi
# Method in brief: as §1
# [3] = test system: MDA-MB-231 cells; test: Cell proliferation experiment, MDA-MB-231
# Method in brief: as §1
# [4] = test system: PC-3; test: Cell proliferation experiment, PC-3
# Method in brief: as §1
# [5] = test system: NCIH82 cells; test: Cell proliferation experiment, NCI-H82; conditions: read-out: Inhibitory activity IC50 on NCI-H82
# Method in brief: as §1
# [6] = Homo sapiens, MV4-11, MV4;11 cells, read-out: Inhibitory activity IC50 on MV4;11
# [7] = Homo sapiens, Daudi, Daudi cells
# [8] = Homo sapiens, MDA-MB-231, MDA-MB-231 cells, read-out: Inhibitory activity IC50 on MDA-MB-231
# [9] = Homo sapiens, PC-3, PC-3 cells, read-out: Inhibitory activity IC50 on PC-3
# [10] = MDA-MB-231 cells, read-out: Inhibitory activity IC50 on MDA-MB-231
# [11] = Homo sapiens, NCI-H82, NCI-H82 cells
# [12] = PC-3 cells, read-out: Inhibitory activity IC50 on PC-3
# [13] = MV4;11 cells, read-out: Inhibitory activity IC50 on MV4;11
SMILES,"IC50 [1, 6]","IC50 [3, 8]","IC50 [4, 9]","IC50 [3, 10]","IC50 [5, 11]",other results
CNC(=O)c1ccccc1Nc1nc(Nc2ccc(N3CCN(C(=O)NCCCOCCNCCC#Cc4ccc5c(c4)CN(C4CCC(=O)NC4=O)C5=O)CC3)cc2)ncc1Cl (stereo not drawn) [UB-181110],10 to 100 nM,> 1000 nM,> 1000 nM,–,100 to 1000 nM,–
CC[C@@H]1C(=O)N(C)c2cnc(Nc3ccc(C(=O)N[C@H]4CC[C@H](NCCOCCC#Cc5cccc6c5CN(C5CCC(=O)NC5=O)C6=O)CC4)cc3OC)nc2N1C1CCCC1 (stereo partly drawn) [UB-181113],–,–,–,–,–,"IC50 ([1]; Homo sapiens, MV4-11, read-out: Inhibitory activity IC50 on MV4;11): < 10 nM; IC50 ([2]; Homo sapiens, Daudi): 10 to 100 nM; IC50 ([3]; Homo sapiens, MDA-MB-231, read-out: Inhibitory activity IC50 on MDA-MB-231): 10 to 100 nM; IC50 ([4]; Homo sapiens, PC-3, read-out: Inhibitory activity IC50 on PC-3): 10 to 100 nM"
CNC(=O)c1ncccc1Nc1nc(Nc2ccc(N3CCN(C(=O)N[C@H]4CC[C@@H](NCCOCCC#Cc5cccc6c5CN(C5CCC(=O)NC5=O)C6=O)CC4)CC3)cc2)ncc1C#N (stereo partly drawn) [UB-181116],100 to 1000 nM,> 1000 nM,> 1000 nM,–,> 1000 nM,–
CNC(=O)c1ncccc1Nc1nc(Nc2ccc(N3CCN(C(=O)N[C@H]4CC[C@@H](NCCOCCC#Cc5ccc6c(c5)CN(C5CCC(=O)NC5=O)C6=O)CC4)CC3)cc2)ncc1C#N (stereo partly drawn) [UB-181117],10 to 100 nM,> 1000 nM,> 1000 nM,–,> 1000 nM,–
CC[C@@H]1C(=O)N(C)c2cnc(Nc3ccc(-c4cn([C@H]5CC[C@H](NCCOCCC#Cc6cccc7c6CN(C6CCC(=O)NC6=O)C7=O)CC5)nn4)cc3)nc2N1C1CCCC1 (stereo partly drawn) [UB-181118],< 10 nM,10 to 100 nM,10 to 100 nM,–,–,"IC50 [2, 7]: 100 to 1000 nM"
CNC(=O)c1ccccc1Nc1nc(Nc2ccc(N3CCN(C(=O)N[C@H]4CC[C@@H](NCCOCCC#Cc5cccc6c5CN(C5CCC(=O)NC5=O)C6=O)CC4)CC3)cc2)ncc1Cl (stereo partly drawn) [UB-181119],–,–,–,100 to 1000 nM,–,"IC50 [1, 13]: < 10 nM; IC50 ([5]; NCI-H82 cells): 100 to 1000 nM; IC50 [4, 12]: 10 to 100 nM"
CNC(=O)c1ccccc1Nc1nc(Nc2ccc(N3CCN(C(=O)N[C@H]4CC[C@@H](NCCOCCC#Cc5cccc6c5CN(C5CCC(=O)NC5=O)C6=O)CC4)CC3)cc2)ncc1Cl (stereo partly drawn) [UB-181120],–,–,–,100 to 1000 nM,–,"IC50 [1, 13]: < 10 nM; IC50 ([5]; NCI-H82 cells): 100 to 1000 nM; IC50 [4, 12]: 10 to 100 nM"
CNC(=O)c1ccccc1Nc1nc(Nc2ccc(N3CCN(C(=O)N[C@H]4CC[C@@H](NCCOCCC#Cc5ccc6c(c5)CN(C5CCC(=O)NC5=O)C6=O)CC4)CC3)cc2)ncc1C#N (stereo partly drawn) [UB-181123],–,–,–,100 to 1000 nM,–,"IC50 [1, 13]: < 10 nM; IC50 ([5]; NCI-H82 cells): 100 to 1000 nM; IC50 [4, 12]: 10 to 100 nM"

# Further lines, with some results ahead:
"IC50 [1, 6]","IC50 [3, 8]","IC50 [4, 9]","IC50 [3, 10]","IC50 [5, 11]",SMILES,other results
< 10 nM,10 to 100 nM,10 to 100 nM,–,–,CC[C@@H]1C(=O)N(C)c2cnc(Nc3ccc(C(=O)N[C@H]4CC[C@@H](NCCOCCC#Cc5cccc6c5CN(C5CCC(=O)NC5=O)C6=O)CC4)cc3OC)nc2N1C1CCCC1 (stereo partly drawn) [UB-180937],"IC50 [2, 7]: 10 to 100 nM"
< 10 nM,< 10 nM,< 10 nM,–,–,CC[C@@H]1C(=O)N(C)c2cnc(Nc3ccc(-c4cn(C5CCC(NCCOCCC#Cc6cccc7c6CN(C6CCC(=O)NC6=O)C7=O)CC5)nn4)cc3OC)nc2N1C1CCCC1 (stereo partly drawn) [UB-180961],"IC50 [2, 7]: < 10 nM"
< 10 nM,–,10 to 100 nM,10 to 100 nM,–,CC[C@@H]1C(=O)N(C)c2cnc(Nc3ccc(-c4cn([C@H]5CC[C@@H](NCCOCCC#Cc6cccc7c6CN(C6CCC(=O)NC6=O)C7=O)CC5)nn4)cc3)nc2N1C1CCCC1 (stereo partly drawn) [UB-181099],IC50 ([2]; Daudi cells): 10 to 100 nM
< 10 nM,10 to 100 nM,10 to 100 nM,–,–,CC[C@@H]1C(=O)N(C)c2cnc(Nc3ccc(-c4cn([C@H]5CC[C@H](NCCOCCC#Cc6cccc7c6CN(C6CCC(=O)NC6=O)C7=O)CC5)nn4)cc3OC)nc2N1C1CCCC1 (stereo partly drawn) [UB-181108],"IC50 [2, 7]: 10 to 100 nM"
< 10 nM,> 1000 nM,100 to 1000 nM,–,10 to 100 nM,CNC(=O)c1ccccc1Nc1nc(Nc2ccc(N3CCN(C(=O)NCCCOCCNCCC#Cc4cccc5c4CN(C4CCC(=O)NC4=O)C5=O)CC3)cc2)ncc1Cl (stereo not drawn) [UB-181111],–
< 10 nM,> 1000 nM,> 1000 nM,–,100 to 1000 nM,CNC(=O)c1ccccc1Nc1nc(Nc2ccc(N3CCN(C(=O)N[C@H]4CC[C@@H](NCCOCCC#Cc5cccc6c5CN(C5CCC(=O)NC5=O)C6=O)CC4)CC3)cc2)ncc1C#N (stereo partly drawn) [UB-181112],–
< 10 nM,–,–,> 1000 nM,100 to 1000 nM,CNC(=O)c1ccccc1Nc1nc(Nc2ccc(N3CCN(C(=O)N[C@H]4CC[C@@H](NCCOCCC#Cc5ccc6c(c5)CN(C5CCC(=O)NC5=O)C6=O)CC4)CC3)cc2)ncc1C#N (stereo partly drawn) [UB-181114],"IC50 [4, 12]: > 1000 nM"

# Reference: patent US20230210999A1, “TARGETED PROTEASE DEGRADATION (TED) PLATFORM” (EUBULUS BIOTHERAPEUTICS INC., priority 2020, published 2023)
